According to ChEMBL document CHEMBL3826916, “Synthesis and potent antiprotozoal activity of mono/di amidino 2-anilinobenzimidazoles versus Plasmodium falciparum and Trypanosoma brucei rhodesiense” (Bioorg Med Chem, 2016):

Tests used:
[1] = tested on: Trypanosoma brucei rhodesiense; assay: Antiparasitic activity against bloodstream forms of Trypanosoma brucei rhodesiense STIB 900 assessed as growth inhibition after 72 hrs by resazurin assay; format: functional, organism-based; conditions: STIB 900, 72 h
Plasmodium falciparum = assay: Antiplasmodial activity against chloroquine and pyrimethamine resistant Plasmodium falciparum K1 infected in human erythrocytes after 48 hrs by [3H]hypoxanthine incorporation assay; format: functional, organism-based
L6 = assay: Cytotoxicity against rat L6 cells by alamar blue assay; format: cell-based
[2] = Selectivity index, ratio of IC50 for rat L6 cells to IC50 for bloodstream forms of Trypanosoma brucei rhodesiense STIB 900; format: toxicity, cell-based; conditions: read-out: Ratio IC50
[3] = Selectivity index, ratio of IC50 for rat L6 cells to IC50 for chloroquine and pyrimethamine resistant Plasmodium falciparum K1 infected in human erythrocytes; format: toxicity, cell-based; conditions: read-out: Ratio IC50

N=C(N)c1ccc(Nc2nc3cc(Cl)ccc3[nH]2)cc1
IC50 [1]: 19.6 µM
IC50 (Plasmodium falciparum): 0.877 µM
IC50 (L6): 46.4 µM
selectivity ratio [2]: 2.4
selectivity ratio [3]: 53

CC(C)NC(=N)c1ccc(Nc2nc3cc(C(=N)NC(C)C)ccc3[nH]2)cc1
IC50 [1]: 0.027 µM
IC50 (Plasmodium falciparum): 0.164 µM
IC50 (L6): 108 µM
selectivity ratio [2]: 4000
selectivity ratio [3]: 660

N=C(N)c1ccc2[nH]c(Nc3ccc(Cl)cc3)nc2c1
IC50 [1]: 17 µM
IC50 (Plasmodium falciparum): 0.688 µM
IC50 (L6): 41.6 µM
selectivity ratio [2]: 2.4
selectivity ratio [3]: 60

N=C(N)c1ccc(Nc2nc3cc(C(F)(F)F)ccc3[nH]2)cc1
IC50 [1]: 20.9 µM
IC50 (Plasmodium falciparum): 0.853 µM
IC50 (L6): 41.4 µM
selectivity ratio [2]: 2
selectivity ratio [3]: 49

N=C(N)c1ccc(Nc2nc3ccccc3[nH]2)cc1
IC50 [1]: 15.8 µM
IC50 (Plasmodium falciparum): 3.29 µM
IC50 (L6): 123 µM
selectivity ratio [2]: 7.7
selectivity ratio [3]: 37

N=C(NC1CCCCC1)c1ccc(Nc2nc3cc(C(=N)NC4CCCCC4)ccc3[nH]2)cc1
IC50 [1]: 0.0051 µM
IC50 (Plasmodium falciparum): 0.0459 µM
IC50 (L6): 63.7 µM
selectivity ratio [2]: 12500
selectivity ratio [3]: 1390

Cc1cc2[nH]c(Nc3ccc(C(=N)N)cc3)nc2cc1Cl
IC50 [1]: 20.7 µM
IC50 (Plasmodium falciparum): 0.795 µM
IC50 (L6): 23.2 µM
selectivity ratio [2]: 1.1
selectivity ratio [3]: 29

CC(C)CNC(=N)c1ccc(Nc2nc3cc(C(=N)NCC(C)C)ccc3[nH]2)cc1
IC50 [1]: 0.0095 µM
IC50 (Plasmodium falciparum): 0.0913 µM
IC50 (L6): 84.4 µM
selectivity ratio [2]: 8880
selectivity ratio [3]: 925

CCC(C)NC(=N)c1ccc(Nc2nc3cc(C(=N)NC(C)CC)ccc3[nH]2)cc1 (stereo not given)
IC50 [1]: 0.0455 µM
IC50 (Plasmodium falciparum): 0.294 µM
IC50 (L6): 93.6 µM
selectivity ratio [2]: 2060
selectivity ratio [3]: 320

N=C(N)c1ccc2[nH]c(Nc3ccccc3)nc2c1
IC50 [1]: 54.7 µM
IC50 (Plasmodium falciparum): 5.46 µM
IC50 (L6): 237 µM
selectivity ratio [2]: 4.3
selectivity ratio [3]: 43

N=C(N)c1ccc(Nc2nc3cc(C(=N)N)ccc3[nH]2)cc1
IC50 [1]: 0.00466 µM
IC50 (Plasmodium falciparum): 0.0675 µM
IC50 (L6): 105 µM
selectivity ratio [2]: 22600
selectivity ratio [3]: 1560

N=C(N)c1ccc2[nH]c(Nc3ccc(Cl)c(Cl)c3)nc2c1
IC50 [1]: 21.8 µM
IC50 (Plasmodium falciparum): 0.138 µM
IC50 (L6): 39.1 µM
selectivity ratio [2]: 1.8
selectivity ratio [3]: 280
